Measurements published in ChEMBL document CHEMBL1201862, “PubChem BioAssay data set” (2004).
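Tested at 5 concentrations; 48 h exposure; 96-well plates; endpoints linearly interpolated, else capped at highest concentration. GI50 = concentration required for 50% inhibition of growth.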 The source made the active and inactive calls. Rule as the data show it: active = GI50 up to about 1.1 µM and inactive = higher.

Legend:
Test in all cases: NCI tumour cell line growth inhibition, 48 h
Malme-3M = test system: Malme-3M
COLO 205 = test system: COLO 205
SN12C = test system: SN12C
SK-OV-3 = test system: SK-OV-3
HL-60 = test system: HL-60
NCI-H460 = test system: NCI-H460
UO-31 = test system: UO-31
T47D = test system: T47D
SW-620 = test system: SW-620
NCI-H226 = test system: NCI-H226
HT-29 = test system: HT-29
MCF7 = test system: MCF7
SK-MEL-2 = test system: SK-MEL-2
SK-MEL-5 = test system: SK-MEL-5
CCRF-CEM = test system: CCRF-CEM
TK-10 = test system: TK-10
Hs-578T = test system: Hs-578T
LXFL 529 = test system: LXFL 529
EKVX = test system: EKVX
SF-295 = test system: SF-295
SF-539 = test system: SF-539
MDA-MB-231 = test system: MDA-MB-231
SF-268 = test system: SF-268
HOP-92 = test system: HOP-92
OVCAR-4 = test system: OVCAR-4
DU-145 = test system: DU-145
SNB-78 = test system: SNB-78
SR = test system: SR
IGROV-1 = test system: IGROV-1
OVCAR-5 = test system: OVCAR-5
DLD-1 = test system: DLD-1
HOP-62 = test system: HOP-62
MDA-N = test system: MDA-N
NCI-H522 = test system: NCI-H522
HCC 2998 = test system: HCC 2998
SNB-19 = test system: SNB-19
ACHN = test system: ACHN
UACC-62 = test system: UACC-62
PC-3 = test system: PC-3
MOLT-4 = test system: MOLT-4
BT-549 = test system: BT-549
NCI/ADR-RES = test system: NCI/ADR-RES
DMS-273 = test system: DMS-273
CAKI-1 = test system: CAKI-1
K562 = test system: K562
786-0 = test system: 786-0
HCT-15 = test system: HCT-15
OVCAR-8 = test system: OVCAR-8
RPMI-8226 = test system: RPMI-8226
HCT-116 = test system: HCT-116
LOX IMVI = test system: LOX IMVI
NCI-H23 = test system: NCI-H23
A549 = test system: A549
M14 = test system: M14
KM12 = test system: KM12
SK-MEL-28 = test system: SK-MEL-28
UACC-257 = test system: UACC-257
OVCAR-3 = test system: OVCAR-3
U-251 = test system: U-251
MDA-MB-435 = test system: MDA-MB-435
A498 = test system: A498
SNB-75 = test system: SNB-75
RXF 393 = test system: RXF 393
KM-20L2 = test system: KM-20L2
DMS-114 = test system: DMS-114

Measured: GI50

Cc1ccc(C(=O)N(Cc2ccccc2)Cc2ccccc2)cc1/N=N/N(C)C
inactive: Malme-3M 18.2 µM | COLO 205 21.5 µM | SN12C 14.6 µM | SK-OV-3 29.5 µM | HL-60 22.6 µM | NCI-H460 14.7 µM | UO-31 15.6 µM | T47D 14.8 µM | SW-620 43.1 µM | NCI-H226 19.1 µM | HT-29 7.6 µM | MCF7 24.2 µM | SK-MEL-2 3.08 µM | SK-MEL-5 10.7 µM | CCRF-CEM 24.2 µM | TK-10 33 µM | Hs-578T 19.3 µM | LXFL 529 6.31 µM | EKVX 35.3 µM | SF-295 9.29 µM | SF-539 18.5 µM | MDA-MB-231 22.9 µM | SF-268 18.5 µM | HOP-92 11.9 µM | OVCAR-4 11.2 µM | DU-145 36.6 µM | SNB-78 27.2 µM | SR 27.7 µM | IGROV-1 40.1 µM | OVCAR-5 39.2 µM | DLD-1 21.4 µM | HOP-62 23.1 µM | MDA-N 30.2 µM | NCI-H522 9.44 µM | HCC 2998 29.6 µM | SNB-19 15 µM | ACHN 7.01 µM | UACC-62 13.1 µM | PC-3 25.9 µM | MOLT-4 26.4 µM | BT-549 18.5 µM | NCI/ADR-RES 22.5 µM | DMS-273 41.8 µM | CAKI-1 6.82 µM | K562 27.2 µM | 786-0 22.2 µM | OVCAR-8 29.9 µM | RPMI-8226 29 µM | HCT-116 8.39 µM | LOX IMVI 7.23 µM | NCI-H23 11.2 µM | A549 17.5 µM | M14 18.1 µM | KM12 8.32 µM | SK-MEL-28 19.3 µM | UACC-257 6.75 µM | OVCAR-3 4.49 µM | U-251 37.8 µM | MDA-MB-435 22.4 µM
17.3 µM: HCT-15

CN(C)c1cccc(F)c1C(=O)NC(=O)Nc1ccc(Cl)cc1
inactive: Malme-3M 1.76 µM | COLO 205 2.21 µM | SN12C 8.83 µM | SK-OV-3 3.75 µM | A498 11.5 µM | NCI-H460 1.91 µM | UO-31 5.87 µM | T47D 4.86 µM | SW-620 1.24 µM | NCI-H226 5.5 µM | MCF7 2.17 µM | SK-MEL-2 2.29 µM | SK-MEL-5 3.33 µM | TK-10 > 100 µM | Hs-578T 2.21 µM | EKVX 4.29 µM | SF-295 1.55 µM | SF-539 3.15 µM | MDA-MB-231 14.8 µM | SF-268 12 µM | HOP-92 27.4 µM | OVCAR-4 > 43 µM | SNB-75 2.4 µM | DU-145 4.03 µM | IGROV-1 3.78 µM | OVCAR-5 8.09 µM | HOP-62 5.2 µM | NCI-H522 2.27 µM | HCC 2998 1.4 µM | SNB-19 > 26.1 µM | ACHN 4.79 µM | UACC-62 2.38 µM | PC-3 2.83 µM | MOLT-4 1.62 µM | BT-549 8.95 µM | NCI/ADR-RES 3.21 µM | CAKI-1 3.78 µM | 786-0 2.98 µM | OVCAR-8 5.19 µM | RPMI-8226 1.81 µM | HCT-116 1.77 µM | LOX IMVI 3.01 µM | NCI-H23 6.34 µM | RXF 393 3.67 µM | A549 5.48 µM | M14 1.93 µM | KM12 2.92 µM | SK-MEL-28 17.6 µM | UACC-257 3.42 µM | OVCAR-3 2.09 µM | U-251 3.69 µM
active: HL-60 0.533 µM | HT-29 1.07 µM | CCRF-CEM 0.745 µM | SR 0.218 µM | MDA-N 0.142 µM | K562 0.479 µM | MDA-MB-435 0.118 µM
0.579 µM: HCT-15

O=C(NCCc1ccc(F)cc1)c1cc(/C=C/c2cc(O)ccc2O)ccc1O
2.26 µM: HCT-15
inactive: Malme-3M 2.42 µM | COLO 205 3.14 µM | SN12C 5.51 µM | SK-OV-3 13 µM | A498 4.06 µM | HL-60 2.38 µM | NCI-H460 9.75 µM | UO-31 1.66 µM | T47D 2.24 µM | SW-620 7.64 µM | NCI-H226 8.59 µM | HT-29 14.4 µM | MCF7 2.45 µM | SK-MEL-2 2.67 µM | SK-MEL-5 2.4 µM | CCRF-CEM 1.61 µM | TK-10 2.61 µM | Hs-578T 4.26 µM | EKVX 2.42 µM | SF-295 16.1 µM | SF-539 2.36 µM | MDA-MB-231 3.3 µM | SF-268 3.47 µM | HOP-92 1.85 µM | OVCAR-4 2.67 µM | SNB-75 4.57 µM | DU-145 10.3 µM | SR 2.96 µM | IGROV-1 2.31 µM | OVCAR-5 6.64 µM | HOP-62 6.11 µM | MDA-N 3.05 µM | NCI-H522 1.52 µM | HCC 2998 7.23 µM | SNB-19 5.45 µM | ACHN 2.01 µM | UACC-62 2.12 µM | PC-3 2.96 µM | MOLT-4 2.48 µM | BT-549 1.44 µM | NCI/ADR-RES 2.69 µM | CAKI-1 3.03 µM | K562 3.03 µM | 786-0 2.24 µM | OVCAR-8 3.29 µM | RPMI-8226 3.01 µM | HCT-116 1.95 µM | LOX IMVI 3.38 µM | NCI-H23 3.28 µM | RXF 393 2.03 µM | A549 11.1 µM | M14 3.67 µM | KM12 6.05 µM | SK-MEL-28 3.21 µM | UACC-257 2.41 µM | OVCAR-3 2.56 µM | U-251 2.1 µM | MDA-MB-435 3.78 µM

COc1ccc(/C=C/c2cc(=O)cc(/C=C/c3ccc(OC)c(O)c3)o2)cc1O
active: SR 1.02 µM | RPMI-8226 0.317 µM | RXF 393 1.11 µM | MDA-MB-435 0.971 µM
inactive: Malme-3M 2.16 µM | COLO 205 11.2 µM | SN12C 3.17 µM | SK-OV-3 5.66 µM | A498 3.53 µM | HL-60 2 µM | NCI-H460 2.21 µM | UO-31 3.83 µM | T47D 1.98 µM | SW-620 2.71 µM | NCI-H226 5.21 µM | HT-29 1.98 µM | MCF7 2.14 µM | SK-MEL-2 2.69 µM | SK-MEL-5 1.88 µM | CCRF-CEM 2.82 µM | TK-10 4.26 µM | Hs-578T 3.5 µM | EKVX 4.52 µM | SF-295 3.52 µM | SF-539 1.98 µM | MDA-MB-231 2.05 µM | SF-268 3.02 µM | HOP-92 3.39 µM | OVCAR-4 2.81 µM | SNB-75 3.82 µM | DU-145 2.92 µM | IGROV-1 3.22 µM | OVCAR-5 9.4 µM | HOP-62 3.41 µM | MDA-N 1.44 µM | NCI-H522 2.24 µM | HCC 2998 1.78 µM | SNB-19 4.84 µM | ACHN 2.48 µM | UACC-62 1.75 µM | PC-3 3.26 µM | MOLT-4 2.24 µM | BT-549 2.65 µM | NCI/ADR-RES 2.89 µM | CAKI-1 3.55 µM | K562 2.42 µM | 786-0 3.06 µM | OVCAR-8 2.91 µM | HCT-116 2.43 µM | LOX IMVI 1.76 µM | NCI-H23 2.43 µM | A549 3.14 µM | M14 2.31 µM | KM12 1.99 µM | SK-MEL-28 3.56 µM | UACC-257 2.04 µM | OVCAR-3 2.52 µM | U-251 1.94 µM
2.29 µM: HCT-15

COC1CCCCN1C(=O)c1ccccc1 (stereo unspecified)
> 25.3 µM: HCT-15
inactive: Malme-3M > 25.3 µM | SN12C > 25.3 µM | SK-OV-3 > 25.3 µM | HL-60 > 25.3 µM | UO-31 > 25.3 µM | KM-20L2 > 25.3 µM | SW-620 > 25.3 µM | NCI-H226 > 25.3 µM | SK-MEL-2 > 25.3 µM | SK-MEL-5 > 25.3 µM | TK-10 > 25.3 µM | DMS-114 > 25.3 µM | SF-268 > 25.3 µM | HOP-92 > 25.3 µM | OVCAR-4 > 25.3 µM | SNB-75 > 25.3 µM | SNB-78 > 25.3 µM | SR > 25.3 µM | IGROV-1 > 25.3 µM | OVCAR-5 > 25.3 µM | HCC 2998 > 25.3 µM | SNB-19 > 25.3 µM | ACHN > 25.3 µM | UACC-62 > 25.3 µM | MOLT-4 > 25.3 µM | CAKI-1 > 25.3 µM | K562 > 25.3 µM | 786-0 > 25.3 µM | HCT-116 > 25.3 µM | LOX IMVI > 25.3 µM | NCI-H23 > 25.3 µM | RXF 393 > 25.3 µM | A549 > 25.3 µM | M14 > 25.3 µM | KM12 > 25.3 µM | SK-MEL-28 > 25.3 µM | OVCAR-3 > 25.3 µM | U-251 > 25.3 µM
